The test system of this assay is MDA-MB-468 multi-cell spheroids, viability. The experiment in a line: Anticancer human tumor MDA-MB-468 cell line growth inhibition [IpAb].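 On all read-outs here: spheroids exposed to agents for seven days.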 The conditions noted are these: for viability, T/C: stronger effect = lower value. The text has this:
Combinatorial screen of targeted agents with ipatasertib and abemaciclib in multi-cell type tumor spheroids
A high-throughput screen of multi-cell type tumor spheroids was designed to identify active combinations of targeted small molecules and ipatasertib or abemaciclib. Complex spheroids include a stromal component modeled by human endothelial cells (HUVEC) and fibroblasts modeled by human mesenchymal stem cells (MSCs). The concentration ranges selected for each drug and investigational agent were based upon clinically achievable concentrations if the clinical Cmax of the agent was known.
Compounds. The drugs and investigational agents: ipatasertib (NSC767898), abemaciclib(NSC768073), selumetinib (NSC741078), trametinib (758246), adavosertib (NSC754352), everolimus (NSC733504), sapanisertib (NSC764658), vemurafenib (NSC761431), venetoclax (NSC766270), copanlisib (NSC809693), apelisib (NSC765974), palbociblib (NSC758247), vemurafenib (NSC761431), dabrafenib (NSC764134), ravoxertinib (NSC781343), BMS-387032 (NSC767048), sotorasib (NSC818433), talazoparib (NSC767125) and afursertib (NSC778305), were obtained from the National Cancer Institute (NCI) Developmental Therapeutics Program Chemical Repository. The FDA-approved anticancer drug set is available from the NCI Developmental Therapeutics Program. […] The stock solutions were prepared in dimethyl sulfoxide (DMSO, Sigma-Aldrich, St. Louis, MO, cat. D2650) at 800-fold the tested concentration and stored at -70 degrees C prior to their use. All drugs and investigational agents were tested over a range starting from a high concentration at or near the clinical Cmax and decreasing in half-log increments. If the clinical Cmax for an agent had not been determined, the highest concentration tested was 10 microM.
NCI60 Cell Culture. NCI60 cell lines were obtained from the NCI Developmental Therapeutics Program Tumor Repository. For each lot of cells, the Repository performed Applied Biosystems AmpFLSTR Identifiler testing with PCR amplification to confirm consistency with the published Identifier STR profile for each cell line. Cells were kept in continuous culture for no more than 20 passages. The optimal seeding densities for each of the cell lines at each time point assessed were determined prior to performing the concentration response studies. Briefly, the NCI60 human tumor lines were grown as monolayers in RPMI 1640 medium supplemented with 10% FBS and 2 mmol/L L-glutamine.
An additional 9 lines were from the NCI60 cell line panel including MDA-MB-231 breast carcinoma, MDA-MB-468 breast carcinoma, MCF7 breast carcinoma, Hs578T breast carcinoma, MALME-3M melanoma, SK-MEL-2 melanoma, SK-OV-3 ovarian carcinoma, DU-145 prostate carcinoma, PC-3 prostate carcinoma, all cell lines along with major genetic alterations are listed on Table 2. Pooled donor human umbilical vein endothelial cells (HUVEC, Lonza, cat. CC-2519) and human mesenchymal stem cells (hMSC, Lonza, cat. PT-2501) were purchased from Lonza (Walkersville, MD).
PDMR cell lines were grown in complete medium (DC medium): Dulbecco's modified Eagle's medium (DMEM)/F12 supplemented with 5% fetal bovine serum (FBS), 2 mM L-glutamine, 100 U/mL penicillin and 100 µg/ml streptomycin, 0.4 µg/ml hydrocortisone, 10 ng/ml epidermal growth factor (EGF) recombinant human protein, 24 µg/mL adenine, and 0.1 mg/mL primocin. During culture from frozen stock vials, PDMR cells were cultured in the same medium containing 10 µM Y-27632 (see Table 3). The PDCs were cultured in complete DMEM/F12 media without 10 microM Y-27632 dihydrochloride for at least two passages prior to the screen. The pooled donor HUVEC and hMSC were cultured in endothelial cell growth medium 2 (PromoCell, Heidelberg, Germany, cat. C-22011) and mesenchymal stem cell growth medium 2 (PromoCell, cat. C-28009), respectively. For all experiments, HUVEC and hMSC were used at passages </=5.
[…]

Several values for one entry are separate records, joined by “and”; a condition that tells them apart may be missing. Equal values may be shown once.

One may read the IC50 as the point on the concentration scale where inhibition reaches its midpoint. By viability, T/C is commonly meant the ratio of treated to control.

For the molecule `CC(C)(C)c1cnc(CSc2cnc(NC(=O)C3CCNCC3)s2)o1` + CCN1CCN(Cc2ccc(Nc3ncc(F)c(-c4cc(F)c5nc(C)n(C(C)C)c5c4)n3)nc2)CC1, the IC50 (curve of first compound, second compound 0.01 µM) came to 105 nM; the IC50 (curve of first compound, second compound 0.0316 µM) was 79.4 nM; the IC50 (curve of first compound, second compound 0.1 µM) was 115 nM; the IC50 (curve of first compound, second compound 0.316 µM) is 62.3 nM; the half-inhibitory concentration (IC50) (curve of first compound, second compound 1 µM) amounted to 42.6 nM. The viability, T/C is 110% (second compound 0.01 µM, first compound 0.00949 µM); 102% (second compound 0.01 µM, first compound 0.03 µM); 55.2% (second compound 0.01 µM, first compound 0.0949 µM); 0.29% (second compound 0.01 µM, first compound 0.3 µM); 0.19% (second compound 0.01 µM, first compound 0.949 µM); 0.31% (second compound 0.01 µM, first compound 3 µM). Further, the viability, T/C by setting is: (second compound 0.0316 µM, first compound 0.00949 µM) 94.8%; (second compound 0.0316 µM, first compound 0.03 µM) 92%; (second compound 0.0316 µM, first compound 0.0949 µM) 42.3%; (second compound 0.0316 µM, first compound 0.3 µM) 0.24%; (second compound 0.0316 µM, first compound 0.949 µM) 0.19%; (second compound 0.0316 µM, first compound 3 µM) 0.32%. In addition, the viability, T/C (second compound 0.1 µM, first compound 0.00949 µM) is 93.6%; the viability, T/C (second compound 0.1 µM, first compound 0.03 µM) was 91.7%; the viability, T/C (second compound 0.1 µM, first compound 0.0949 µM) is 59.9%; the viability, T/C (second compound 0.1 µM, first compound 0.3 µM) was 0.22%; the viability, T/C (second compound 0.1 µM, first compound 0.949 µM) is 0.22%; the viability, T/C (second compound 0.1 µM, first compound 3 µM) was 0.29%. For the same molecule, the viability, T/C is 90.8% (second compound 0.316 µM, first compound 0.00949 µM); 89.8% (second compound 0.316 µM, first compound 0.03 µM); 27.1% (second compound 0.316 µM, first compound 0.0949 µM); 0.32% (second compound 0.316 µM, first compound 0.3 µM); 0.26% (second compound 0.316 µM, first compound 0.949 µM); 0.31% (second compound 0.316 µM, first compound 3 µM). The viability, T/C reads like this: (second compound 1 µM, first compound 0.00949 µM) 85.6%; (second compound 1 µM, first compound 0.03 µM) 70.8%; (second compound 1 µM, first compound 0.0949 µM) 2.25%; (second compound 1 µM, first compound 0.3 µM) 0.45%; (second compound 1 µM, first compound 0.949 µM) 0.35%; (second compound 1 µM, first compound 3 µM) 0.37%.

In the case of `Cn1ncnc1[C@H]1c2n[nH]c(=O)c3cc(F)cc(c23)N[C@@H]1c1ccc(F)cc1`, the viability, T/C is, setting by setting: (compound 0.000316 µM) 121% and 90.6%; (compound 0.001 µM) 105% and 98.7%; (compound 0.00316 µM) 113% and 81%; (compound 0.01 µM) 103% and 93.2%; (compound 0.0316 µM) 84.2% and 83.9%; (compound 0.1 µM) 68.8% and 65.7%. Moreover, the IC50 (curve of compound) was greater than 100 nM.

(Values after PubChem BioAssay AID2060326 (Molecular Pharmacology Branch, DTP, NCI, 2025).)
